The record followed here is patent US9862730B2, “Imidazothiadiazole derivatives as protease activated receptor 4 (PAR4) inhibitors for treating platelet aggregation” (BRISTOL-MYERS SQUIBB COMPANY, priority 2012, dated 2018).

For the experiment, the target named is PAR4 (Homo sapiens (Human), UniProt Q96RI0). Put plainly: FLIPR assay in PAR4-expressing HEK293 cells (PAR4 antagonist activity, calcium mobilization). It is filed as cell-based. Particulars: FLIPR assay as described in Example A. An excerpt:
The FLIPR assay is an exemplary in vitro assay for measuring the activity of the PAR4 antagonists of the present invention. In this assay, intracellular calcium mobilization is induced in PAR4 expressing cells by a PAR4 agonist and calcium mobilization is monitored. See, e.g., Example A.
HEK293 cells stably expressing PAR4 were generated by a standard method of transfection of human […] cDNA expression vector or by RAGE technology from Athersys Inc. (Cleveland, Ohio) and selected based on PAR4 protein expression of mRNA expression. […] These cells express endogenous PAR1 and can elicit calcium signal upon stimulation with PAR1 agonist peptide.
Counter screens for agonist activity and PAR1 antagonist activity were also performed. Briefly, HEK293 EBNA PAR4 clone 20664.1J cells were plated 24 hrs. prior to experiment in 384 well, Poly-D-Lysine coated, black, clear bottom plates (Greiner Bio-One, Monroe, N.C.). Cells were plated at 20,000 cells/well in 20 μl growth medium and incubated at 37° C. with 5% CO2 overnight. At time of assay, media was replaced with 40 μl 1× Hank's Buffered Saline Solution (HBSS) (with 10 mM HEPES) and 20 μl test compound also diluted in 1×HBSS buffer was added at various concentrations and 0.67% DMSO final concentration on the FDSS for agonist measurement. The cells were then incubated for 30 minutes at room temperature followed by addition of 20 μl of agonist peptide for antagonist measurement on the FDSS.
As indicated above, the FLIPR assay, an in vitro assay, measures the PAR4 antagonist activity of compounds tested as described in Example A.

Sequence of PAR4 (Q96RI0 18-385): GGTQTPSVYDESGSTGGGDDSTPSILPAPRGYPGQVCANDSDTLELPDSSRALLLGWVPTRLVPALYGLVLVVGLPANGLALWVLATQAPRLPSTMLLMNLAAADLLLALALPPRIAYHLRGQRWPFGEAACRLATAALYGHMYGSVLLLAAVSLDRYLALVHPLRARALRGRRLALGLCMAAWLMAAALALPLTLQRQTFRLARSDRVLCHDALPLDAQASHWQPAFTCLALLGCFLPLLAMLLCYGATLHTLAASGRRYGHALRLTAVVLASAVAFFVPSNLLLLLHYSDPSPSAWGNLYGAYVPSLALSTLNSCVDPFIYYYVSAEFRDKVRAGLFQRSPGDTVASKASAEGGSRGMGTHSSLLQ

The IC50 is the concentration that inhibits the measured activity by half. `Cc1nn2cc(-c3cc4ccccc4o3)nc2s1` [Example 41]: the IC50 turned out to be 18.6 nM.

With `COc1nn2cc(-c3nc4cc(OC(F)(F)F)ccc4o3)nc2s1` [Example 140], the IC50 amounted to 68.9 nM.

For the compound `CCc1nn2cc(-c3nc4ccc(Cl)cc4o3)nc2s1` [Example 40], the IC50 came out at 122 nM.

Turning to `CCc1nn2cc(-c3cc4cccc(OCCCC#N)c4o3)nc2s1` [Example 66], the IC50 was determined as 2620 nM.

For `COc1cc(OCc2cccc(OCc3cccc(NC(=O)c4ccccc4)c3)c2)c2cc(-c3cn4nc(OC)sc4n3)oc2c1` [Example 397], the IC50 amounted to 2.3 nM.

Consider `COc1cc(OCc2ccc(C)c(OCc3ccccc3)c2)c2cc(-c3cn4nc(OC)sc4n3)oc2c1` [Example 352], for which the IC50 is 3.61 nM.

Turning to `CSc1nn2cc(-c3cc4c(O)cccc4o3)nc2s1` [Example 214, 2-(2-(Methylthio)imidazo[2,1-b][1,3,4]thiadiazol-6-yl)benzofuran-4-ol], the IC50 was found to be 322 nM.

As to `COc1nn2cc(-c3cc4c(Cl)cccc4o3)nc2s1` [Example 109], the IC50 was 3.1 nM.

Regarding `COc1ccc(COc2ccc3nc(-c4cn5nc(SC)sc5n4)oc3c2)cc1` [Example 170], the IC50 came out at 116 nM.

With `CCc1nn2cc(-c3nc4cc(C)cc(C)c4o3)nc2s1` [Example 58], the IC50 turned out to be 565 nM.

In the case of `COc1ccc2oc(-c3cn4nc(SC)sc4n3)nc2c1` [Example 141], the IC50 was determined as 41 nM.

Regarding `CSc1nn2cc(-c3nc4ccc(N)cc4o3)nc2s1` [Example 176], the IC50 turned out to be 701 nM.

`COc1cc(OCc2cccc(OCc3ccc(OCc4ccccc4)c(OC)c3)c2)c2cc(-c3cn4nc(OC)sc4n3)oc2c1` [Example 357]: the IC50 came out at 4.92 nM.

`COc1ccc2oc(-c3cn4nc(SC)sc4n3)c(C)c2c1` [Example 24]: the IC50 came out at 696 nM.

As to `COc1cc(OC)c2cc(-c3cn4nc(C(C)(F)F)sc4n3)oc2c1Br` [Example 225, 6-(7-Bromo-4,6-dimethoxybenzofuran-2-yl)-2-(1,1-difluoroethyl)imidazo[2,1-b][1,3,4]thiadiazole], the IC50 came out at 300 nM.

For the compound `CSc1nn2cc(-c3nc4c(OCc5cccc(C#N)c5)cccc4o3)nc2s1` [Example 156], the IC50 stood at 1020 nM.

Turning to `COCOc1cccc2oc(-c3cn4nc(OC)sc4n3)cc12` [Example 217, 2-Methoxy-6-(4-(methoxymethoxy)benzofuran-2-yl)imidazo[2,1-b][1,3,4]thiadiazole], the IC50 came out at 7.51 nM.

In the case of `COc1cc(OCc2cccc(OCc3ccccc3)c2)c2cc(-c3cn4nc(Br)sc4n3)oc2c1` [Example 344], the IC50 amounted to 1.12 nM.

For `COc1nn2cc(-c3cc4ccc(F)cc4o3)nc2s1` [Example 96], the IC50 worked out at 7.92 nM.

For `COc1cc(OC(C)C)c2cc(-c3cn4nc(Br)sc4n3)oc2c1` [Example 299], the IC50 came to 78.8 nM.

On to `CCc1nn2cc(-c3nc4ccc(OC(C)C)cc4o3)nc2s1` [Example 87], for which the IC50 turned out to be 450 nM.

As for `COc1nn2cc(-c3cc4ccc(Cl)cc4o3)nc2s1` [Example 94], the IC50 is 3.58 nM.

As to `COc1nn2cc(-c3cc4c(C)cc(C)cc4o3)nc2s1` [Example 297], the IC50 is 5.88 nM.

For `CCOC(=O)CCCCCOc1cccc2cc(-c3cn4nc(CC)sc4n3)oc12` [Example 65], the IC50 was determined as 1470 nM.

For `Cc1cccc2cc(-c3cn4nc(C(C)(F)F)sc4n3)oc12` [Example 234], the IC50 is 113 nM.

With `CSc1nn2cc(-c3cc4cccc(F)c4o3)nc2s1` [Example 257], the IC50 turned out to be 50.2 nM.

As for `FC(F)C(F)(F)c1nn2cc(-c3cc4ccccc4o3)nc2s1` [Example 208, 6-(Benzofuran-2-yl)-2-(1,1,2,2-tetrafluoroethyl)imidazo[2,1-b][1,3,4]thiadiazole], the IC50 amounted to 457 nM.

`COc1nn2cc(-c3cc4c(OC)ccc(OC)c4o3)nc2s1` [Example 103]: the IC50 amounted to 10.7 nM.

Turning to `COc1cc(OC)c2nc(-c3cn4nc(SC)sc4n3)oc2c1` [Example 177], the IC50 turned out to be 3.78 nM.

For `CSc1nn2cc(-c3cc4c(C)cc(C)cc4o3)nc2s1` [Example 295], the IC50 amounted to 12.1 nM.

On to `COc1cc(OC)c2cc(-c3cn4nc(C(C)(F)F)sc4n3)oc2c1` [Example 242], for which the IC50 stood at 50.5 nM.

As for `CC(F)(F)c1nn2cc(-c3cc4ccccc4o3)nc2s1` [Example 207, 6-(Benzofuran-2-yl)-2-(1,1-difluoroethyl)imidazo[2,1-b][1,3,4]thiadiazole], the IC50 was found to be 127 nM.

As for `COc1ccc2nc(-c3cn4nc(SC)sc4n3)oc2c1` [Example 116, 6-Methoxy-2-(2-(methylthio)imidazo[2,1-b][1,3,4]thiadiazol-6-yl)benzo[d]oxazole], the IC50 was 6.63 nM.

Regarding `CSc1nn2cc(-c3nc4cc(Cl)ccc4o3)nc2s1` [Example 125], the IC50 is 206 nM.

Regarding `FC(F)(Cl)c1nn2cc(-c3cc4ccccc4o3)nc2s1` [Example 209, 6-(Benzofuran-2-yl)-2-(chlorodifluoromethyl)imidazo[2,1-b][1,3,4]thiadiazole], the IC50 was 442 nM.

For `COc1nn2cc(-c3cc4cc(Br)c(OC)cc4o3)nc2s1` [Example 278], the IC50 is 52.6 nM.

For `CSc1nn2cc(-c3nc4c(OC(F)(F)F)cccc4s3)nc2s1` [Example 181, 2-(2-(Methylthio)imidazo[2,1-b][1,3,4]thiadiazol-6-yl)-4-(trifluoromethoxy)benzo[d]thiazole], the IC50 turned out to be 419 nM.

For `COc1cc(COc2cccc(COc3cc(OC)cc4oc(-c5cn6nc(OC)sc6n5)cc34)c2)cc(OC)c1` [Example 390], the IC50 came to 1.6 nM.

Regarding `COc1cc(OCc2cccc(OCc3cccc(Cl)c3)c2)c2cc(-c3cn4nc(OC)sc4n3)oc2c1` [Example 349], the IC50 is 0.32 nM.

Turning to `CSc1nn2cc(-c3nc4ccc(OCc5ccccn5)cc4o3)nc2s1` [Example 117, 2-(2-(Methylthio)imidazo[2,1-b][1,3,4]thiadiazol-6-yl)-6-(pyridin-2-ylmethoxy)benzo[d]oxazole], the IC50 stood at 654 nM.

Take `COc1nn2cc(-c3nc4cc(C)c(C)cc4o3)nc2s1` [Example 136]: the IC50 worked out at 38.9 nM.

As to `COc1cc(Br)c2oc(-c3cn4nc(SC)sc4n3)cc2c1` [Example 283], the 50% inhibitory concentration (IC50) is 2710 nM.

Regarding `COc1cc(OCc2cccc(OCc3ccc(C(C)C)cc3)c2)c2cc(-c3cn4nc(OC)sc4n3)oc2c1` [Example 313], the IC50 was 2.11 nM.

For the compound `CC(F)c1nn2cc(-c3cc4ccc(OCc5ccccc5)cc4o3)nc2s1` (centres unmarked) [Example 246], the IC50 came to 318 nM.

Regarding `Cc1cc2oc(-c3cn4nc(C(C)(F)F)sc4n3)cc2cc1Cl` [Example 274], the IC50 stood at 1970 nM.

Turning to `COc1cc(OCc2cccc(OCc3ccccc3)c2)c2nc(-c3cn4nc(SC)sc4n3)oc2c1` [Example 403], the IC50 was found to be 0.86 nM.

Turning to `COc1cc(O)c2cc(-c3cn4nc(OC)sc4n3)oc2c1` [Example 204, 6-Methoxy-2-(2-methoxyimidazo[2,1-b][1,3,4]thiadiazol-6-yl)benzofuran-4-ol], the IC50 stood at 170 nM.

Regarding `CSc1nn2cc(-c3nc4c(OCc5cccnc5)cccc4o3)nc2s1` [Example 154], the IC50 came out at 571 nM.

Regarding `COc1cc(OCc2cccc(OCc3ccc(F)cc3C(F)(F)F)c2)c2cc(-c3cn4nc(OC)sc4n3)oc2c1` [Example 385], the IC50 is 3.13 nM.

As for `CC(F)(F)c1nn2cc(-c3nc4ccccc4s3)nc2s1` [Example 185, 2-(2-(1,1-Difluoroethyl)imidazo[2,1-b][1,3,4]thiadiazol-6-yl)benzo[d]thiazole], the IC50 is 626 nM.

On to `CCc1nn2cc(-c3nc4cc(Cl)ccc4o3)nc2s1` [Example 45], for which the IC50 is 135 nM.

For `CCc1nn2cc(-c3nc4ccc(OCc5ccc(OC)cc5)cc4o3)nc2s1` [Example 84], the IC50 is 101 nM.

Consider `COc1nn2cc(-c3nc4c(OC(F)(F)F)cccc4s3)nc2s1` [Example 195], for which the IC50 was 2420 nM.

For the compound `COc1nn2cc(-c3cc4c(O)cccc4o3)nc2s1` [Example 211, 2-(2-Methoxyimidazo[2,1-b][1,3,4]thiadiazol-6-yl)benzofuran-4-ol], the IC50 was determined as 111 nM.

With `CCOc1cc(OC)cc2oc(-c3cn4nc(OC)sc4n3)cc12` [Example 206], the IC50 was found to be 2.01 nM.

In the case of `COc1nn2cc(-c3nc4ccc(OCc5ccc(C(F)(F)F)cc5)cc4o3)nc2s1` [Example 165], the IC50 is 81 nM.

For the compound `CC(F)c1nn2cc(-c3cc4ccccc4o3)nc2s1` (centres unmarked) [Example 247], the IC50 was 47.9 nM.

As for `COCOc1c(Br)ccc2oc(-c3cn4nc(OC)sc4n3)cc12` [Example 217A, 6-(5-Bromo-4-(methoxymethoxy)benzofuran-2-yl)-2-methoxyimidazo[2,1-b][1,3,4]thiadiazole], the IC50 is 45.1 nM.

For `COCCOc1cccc2oc(-c3cn4nc(SC)sc4n3)cc12` [Example 268], the IC50 stood at 21.8 nM.

For the compound `CCc1nn2cc(-c3nc4ccc(OCc5cccc(Cl)c5)cc4o3)nc2s1` [Example 82], the IC50 was 66 nM.

With `c1ccc2oc(-c3cn4nc(C5CC5)sc4n3)cc2c1` [Example 63], the IC50 was 201 nM.

Regarding `Cc1cc2nc(-c3cn4nc(C(C)(F)F)sc4n3)oc2cc1C` [Example 179], the IC50 was 225 nM.
